This series is described as follows: Solubility measurement of acid chlorides containing one carboxylic acid moiety in hydrocarbon solvents with and without trialkylphosphate additives (saturated solutions, proton NMR). The following applies: saturated solution. The class given is physicochemical. The source says: Many embodiments of the invention have been described and in some instances certain embodiments, selections, ranges, constituents, or other features have been characterized as being “preferred.” Characterizations of “preferred” features should in no way be interpreted as deeming such features as being required, essential or critical to the invention. For purposes of this description, the terms “acyl halide” and “acid halide” have the same meaning. While much of the description has focused upon acyl chlorides, non-chloride halides are also included. The term “solubility limit” refers to the point at which no additional amount of a constituent, (e.g. water, reaction product, hydrocarbon reactant) is miscible or dissolvable with the hydrocarbon solvent or solution, as measured at 20° C. and 101 kPa. Unless otherwise stated, all solubility related parameters are determined at 20° C. and 101 kPa.
Solubility measurement of acid chlorides containing one carboxylic acid moiety in hydrocarbon solvents with and without solubility enhancing additives:
Saturated solutions of sample acid chlorides containing carboxylic acid moieties were prepared in hydrocarbon solvents with and without the presence of trialkylphosphate additives by adding more sample than will dissolve in the solvent and decanting the saturated solvent from the undissolved precipitate. The saturated solutions were evaluated by proton NMR. Deuterated Isopar L is not commercially available, thus all spectra were acquired in the unlocked condition using regular Isopar L. Because of the very high proton concentration in running a non-deuterated solvent, 60° pulse and minimum receiver gain were used to avoid receiver overflow. A relaxation delay of 8 seconds was used for complete signal recovery between scans. The spectral width was set to 20 ppm and the center of the spectrum was set to 5 ppm. Depending on the concentrations of the species of interest, 64-256 scans were used for signal averaging.
The area of the Isopar L peaks between 0.75 and 2.0 ppm were measure and divided by 26 (which represents the average H's present in Isopar L, assuming a molecular formula of C12H26) and multiplied by 170.33, the formula weight of C12H26. The peak area of the aromatic acid chlorides containing carboxylates are between 8.9-9.2 ppm and are well resolved from the Isopar solvent. The integration of one of the assigned peaks (for example, the triplet of mono-hydrolyzed TMC at 9.0 ppm represents a single proton) was used to determine the relative weight of the sample in the Isopar L solvent. The integration is divided by the number of protons it represents and multiplied by the formula weight of the compound it represents (for example, the triplet of mono-hydrolyzed TMC at 9.0 ppm would be divided by 1 and multiplied by 247.03 g/mol). The wt % of mono-hydrolyzed TMC in the saturated solution is determined by dividing the value obtained for mono-hydrolyzed TMC by the value obtained for Isopar L.
In the presence of tributylphosphate (TBP), the Isopar L value must be corrected since a few protons of TBP cannot be resolved from the Isopar L peaks. This is done by integrating the —OCH2-protons of TBP which are well resolved at ˜4.05 ppm, dividing this value by 6 (for 6 protons). This area value is then multiplied by 21 (represents the three —CH2CH2CH3 that are unresolved from the Isopar L peak) and subtracted from the peak area of Isopar L.

The mark [1] stands for this setting: solvent Isopar L, 20° C. and 101 kPa.

For `O=C(O)c1cccc(C(=O)Cl)c1` [mhIPC], the Solubility by setting is: (solvent Isopar L + 0.47 wt % TBP) 0.29 wt %; under setting [1], below 0.02 wt %.

On to `O=C(O)c1cc(C(=O)Cl)cc(C(=O)Cl)c1` [mhTMC, mono-hydrolyzed trimesoyl chloride], for which the Solubility was found to be 0.29 wt % (solvent 80/20 Isopar L/Toluene + 0.25 wt % TBP); 0.05 wt % (solvent 80/20 Isopar L/Toluene); 0.11 wt % (solvent Isopar L + 1 wt % TEHP); 0.2 wt % (solvent Isopar L + 1 wt % TEP); 0.02 wt % under setting [1].

The values above are taken from patent publication US9051417B2, “Method for solubilizing carboxylic acid-containing compound in hydrocarbon solvent” (Dow Global Technologies LLC, priority 2013, dated 2015).
